Data set [1] concerns healthy donor thrombocytes. Nature of the data set: Platelet activation (CD62p, flow cytometry) by HIT patient anti-heparin/PF4 antibodies. The format is cell-based, human. The settings on record: for ratio: % CD62p+ (with substance)/% CD62p+ (without) / ΔCD62p+ %: percentage increases in CD62p positive platelets: 0.3 IU heparin or 5 μg/ml polysaccharide. Here is the method: The activation of healthy donor thrombocytes by HIT patient anti-heparin/PF4 antibodies in the presence of heparin and the differently sulfated forms of β-cyclodextrin was tested. […] The expression of CD62p by the activated platelets was assayed by means of flow cytometry with a FC500 analyzer (available from Beckman Coulter, Belgium). Platelet-rich plasma solution (PRP) was prepared by slow centrifugation (10 minutes at 180 g) of fresh citrate anti-coagulated blood (1:9 v/v, 0.129 mol/L or 3.8% trisodium citrate buffer), obtained from normal donors. HIT Ab positive plasma samples from patients and HIT Ab negative control plasma from healthy donors were prepared by double centrifugation (15 minutes at 2230 rpm) of fresh citrate anti-coagulated blood. 70 μl of PRP was incubated with 20 μL of HIT Ab containing plasma optionally in the presence of heparin (0.3 IU/ml) or the relevant β-cyclodextrin derivative (5 μg/ml). Experiments with each HIT Ab positive plasma sample were repeated independently using thrombocytes of 2 donors (A and B), to avoid the possibility of non-reactive platelets.
Following the initial 40 minutes incubation step, 5 μl of the platelets solution was transferred to a fresh tube with 85 μL phosphate buffered saline (PBS) containing 1% bovine serum albumin (BSA) and 0.1% Na-azide, 5 μl (0.25 μg) monoclonal anti-CD41 antibodies (Ab) (phycoerythrin-Texas Red Energy coupled dye (ECD)-conjugated, Beckman Coulter) and 5 μl (0.125 μg) of anti-CD62p Ab (phycoerythrin (PE)-conjugated, Beckman Coulter). CD41 (Glycoprotein […]) is a selective marker of platelets and platelet precursors. CD62p is a constituent of alpha granules and is released to the platelet surface on activation.
After 20 minutes of incubation at room temperature, the total volume of the platelet suspension was adjusted to 600 μL buffered solution and evaluated without delay by flow cytometry. 20,000 events per sample were analysed and the platelet populations were gated by side scatter characteristics and the platelet marker CD41. The fraction of activated platelets among the total platelet population was determined and relative CD62p ratios to the internal controls were calculated. [ratio: % CD62p^+ (0.3 IU Heparine or 5 μg/ml β-cyclodextrin derivative)/% CD62p^+ (0 IU Heparine or 0 μg/ml β-cyclodextrin derivative)]. Test results for the heparin treated platelets were evaluated by the scoring system described in Thromb. Haemost. (1999) 82:1255-1259. Control tests were scored positive when the calculated ratios of at least 2 donors were more then 2, based on previously obtained results with normal individuals. To evaluate the potential of the different β-cyclodextrin derivatives to induce platelet activation, both the percentages and ratios of CD62p^+ platelets after incubation with the respective β-cyclodextrin were statistically compared to the percentage and the ratio of CD62p^+ platelets after heparin incubation.
A general note: In flow cytometry, cells or beads pass a laser one at a time.

The subject of the next data set is normal pooled plasma. Nature of the data set: Blood coagulation activities (aPTT, PT, fibrinogen) in normal pooled plasma. Further details: species or system human. As to conditions: after incubation with 50 or 100 μg/ml. The method, then: MA-CDPS, HP-CDPS, CE-CDPS and CDPS (as defined in examples 3-4 and characterised in table 1) were prepared as buffered solutions at various concentrations. The polysaccharides were incubated with normal pooled plasma prepared out of 40 healthy volunteers and analyzed for their effects on activated partial thromboplastin time (aPTT), prothrombin time (PT) and fibrinogen levels on a STA Compact® coagulation analyzer (available from Diagnostica Stago, Asnieres, France) according to the manufacturers instructions.

The test system of another data set is C57BI/6 male mice. Nature of the data set: Collagenase-induced knee osteoarthritis in mice, histopathology. The format is in vivo. The method, then: Knee osteoarthritis was induced by injecting the right knees of adult (10 weeks) C57BI/6 male mice with 10 μl of a 2 U/μl collagenase type VII (Sigma C-9572, available from Sigma-Aldrich Belgium) solution. The left knee of these animals was injected with 10 μl PBS and served as a control. Two groups of each 8 mice were randomized on weight, the first group was injected subcutaneously once weekly, with 1 mg/kg of the CE-CDPS of example 3, the second group was treated with saline. Treatment was initiated three days after the mice received their intra-articular injection. The animals were fed a standard diet with tap water ad libitum and their weight was recorded twice a week. The mice were sacrificed three weeks after induction of knee osteoarthritis and the liver, kidneys and knee joints were fixed immediately in 2% neutral buffered paraformaldehyde (Fluka 76240, available from Sigma-Aldrich Belgium).
After fixation, knee joints were decalcified in 0.5 M EDTA in PBS and embedded in paraffin. 5μ tissue sections were cut and stained with haematoxylin and eosin for an analysis of the general morphology or with safranin-O for an assessment of proteoglycan content. Each 100 μm, 3 sections of the joint were evaluated.
Stained slides were submitted for evaluation. The following parameters were evaluated: synovial inflammation, fibrosis, osteophytes and erosion of cartilage. Synovial inflammation was graded from 0 to +3 as follows: 0 no changes from normal; +1 mild changes; +2 moderate changes; and +3 severe changes.
Fibrosis was scored as follows: 0 no changes from normal; +1 fibrosis without metaplasia; +2 fibrosis associated with chondroplasia; +3 fibrosis associated with metaplastic bone. Osteophytes were graded from 0 to +4 referring to the amount of osteophytes observed, with a maximum score of 1 per compartment.
Cartilage erosion was graded from 0 to +3 as follows: 0 no changes from normal; +1 only superficial erosion; +2 loss of proteoglycan in one compartment; and +3 loss of proteoglycan in different compartments. In this scoring system the femoral/tibial junction as a whole was taken in consideration by 2 independent investigators.

[2] abbreviates: HIT ab plasma pat1, platelet donor dA.
[3] abbreviates: HIT ab plasma pat1, platelet donor dB.
The mark [4] stands for this setting: HIT ab plasma pat2, platelet donor dA.
Setting [5] is: HIT ab plasma pat2, platelet donor dB.
[6] abbreviates: HIT ab plasma pat3, platelet donor dA.
Where [7] appears, read: HIT ab plasma pat3, platelet donor dB.
Where [8] appears, read: HIT ab plasma pat4, platelet donor dA.
Where [9] appears, read: HIT ab plasma pat4, platelet donor dB.
Where [10] appears, read: in the presence of plasma samples of individuals that had developed HIT Ab.
[11] abbreviates: 1 mg/kg subcutaneously once weekly, OA knees.

As to “Sulfated (2-carboxyethyl)-β-cyclodextrin [CE-CDPS]”, the “ratio: % CD62p+ (with substance)/% CD62p+ (without)” value (“ratio: % CD62p+ … (without)” below) in data set [1] (setting [2]) is on record as 1.8; in data set [1] (setting [3]), 2.2; in data set [1] (setting [4]), 1.1; in data set [1] (setting [5]) it was 1.2; in data set [1] (setting [6]), 1.4; in data set [1] (setting [7]), 2.7. The “ratio: % CD62p+ … (without)” value was 2.2 in data set [1] (setting [8]) and 2.4 in data set [1] (setting [9]). Besides, the “ΔCD62p+ %: percentage increases in CD62p positive platelets” value (from here on “ΔCD62p+ %: percentage increases”) stood at 13.9% in data set [1] (setting [2]); 14.4% in data set [1] (setting [3]); 2.4% in data set [1] (setting [4]); 1.1% in data set [1] (setting [5]); 7.9% in data set [1] (setting [6]); 10.2% in data set [1] (setting [7]). Besides, the “ΔCD62p+ %: percentage increases” value in data set [1] (setting [8]) was found to be 22.9%; in data set [1] (setting [9]) it was 45.0%. For the same substance, the platelet activation result in data set [1] (setting [10]) is “do not significantly activate platelets”. In data set [1] (paired analysis versus heparin, ratios and percentages of CD62p positive cells), the “cross-reactivity with the heparin/PF4 antibodies” value is reported as “no cross-reactivity”. In addition, the fibrinogen concentrations result with normal pooled plasma is “Minor decreases”. Further, in the data set with C57BI/6 male mice (setting [11]), the osteophyte growth result was “not inhibited”. The pannus formation entry with C57BI/6 male mice (setting [11]) was “not inhibited”. The synovial inflammation entry in the data set on C57BI/6 male mice (setting [11]) is “not inhibited”. Also, the “weight of the animals” value in the data set on C57BI/6 male mice (1 mg/kg subcutaneously once weekly, three weeks) was “did not affect”. In addition, in the data set with C57BI/6 male mice (1 mg/kg subcutaneously once weekly, versus PBS-treated), the “overall cartilage damage (Safranine O staining)” value is given as “reduced”. Further, the “cartilage proteoglycan depletion in osteoarthritis knee joints” value in the data set with C57BI/6 male mice (collagenase-induced knee-osteoarthritis in mice) is “prevented”.
As to heparin, the “ratio: % CD62p+ … (without)” value in data set [1] (setting [2]) turned out to be 4.2; in data set [1] (setting [3]), 2.2; in data set [1] (setting [4]), 2.8; in data set [1] (setting [5]) it was 3.9; in data set [1] (setting [6]), 4.3; in data set [1] (setting [7]), 8.2. Further, the “ratio: % CD62p+ … (without)” value in data set [1] (setting [8]) is reported as 2.7; in data set [1] (setting [9]), 2.8. Further, the “ΔCD62p+ %: percentage increases” value amounted to 45.5% in data set [1] (setting [2]); 14.3% in data set [1] (setting [3]); 45.6% in data set [1] (setting [4]); 15.1% in data set [1] (setting [5]); 60.3% in data set [1] (setting [6]); 42.3% in data set [1] (setting [7]). Further, the figures for the “ΔCD62p+ %: percentage increases” value in data set [1] (setting [8]) and in data set [1] (setting [9]) were 34.8% and 56.4%, respectively. In data set [1] (all HIT Ab positive plasma samples, the two donors), the “platelet heparin activation ratios % CD62p+ (0.3 IU heparin)/% CD62p+ (0 IU heparin)” value is listed as “above 2”. Also, in data set [1] (in the absence of patient's HIT Ab), the platelet activation entry is on record as “not activated”.
For the substance “Sulfated 6-monoamino-6-monodeoxy β-cyclodextrin [MA-CDPS]”, the “ratio: % CD62p+ … (without)” value was found to be 5.2 in data set [1] (setting [2]); 5.5 in data set [1] (setting [3]); 1.4 in data set [1] (setting [4]); 3.5 in data set [1] (setting [5]); 1.9 in data set [1] (setting [6]); 8.2 in data set [1] (setting [7]). In addition, the figures for the “ratio: % CD62p+ … (without)” value in data set [1] (setting [8]) and in data set [1] (setting [9]) were 3.5 and 3.1, respectively. The “ΔCD62p+ %: percentage increases” value worked out at 74.8% in data set [1] (setting [2]); 69.9% in data set [1] (setting [3]); 9.6% in data set [1] (setting [4]); 17.4% in data set [1] (setting [5]); 16.7% in data set [1] (setting [6]); 32.6% in data set [1] (setting [7]). Also, the “ΔCD62p+ %: percentage increases” value in data set [1] (setting [8]) turned out to be 51.1%; in data set [1] (setting [9]), 63.6%. In data set [1] (setting [10]), the platelet activation entry was “induced platelet activation”. Also, the fibrinogen concentrations result with normal pooled plasma is “Minor decreases”.
As to “Sulfated (2-hydroxypropyl)-β-cyclodextrin [HP-CDPS]”, the “ratio: % CD62p+ … (without)” value in data set [1] (setting [2]) came to 4.9; in data set [1] (setting [3]), 5.1; in data set [1] (setting [4]), 1.0; in data set [1] (setting [5]), 1.1; in data set [1] (setting [6]), 2.1; in data set [1] (setting [7]), 4.7. For the same substance, the “ratio: % CD62p+ … (without)” value came out at 4.6 in data set [1] (setting [8]) and 2.8 in data set [1] (setting [9]). In addition, the “ΔCD62p+ %: percentage increases” value stood at 67.6% in data set [1] (setting [2]); 53.0% in data set [1] (setting [3]); 0.1% in data set [1] (setting [4]); 1.2% in data set [1] (setting [5]); 23.3% in data set [1] (setting [6]); 17.1% in data set [1] (setting [7]). The “ΔCD62p+ %: percentage increases” value was found to be 63.2% in data set [1] (setting [8]) and 60.7% in data set [1] (setting [9]). Further, the platelet activation result in data set [1] (setting [10]) is reported as “induced platelet activation”. For the same substance, the fibrinogen concentrations result in the data set on normal pooled plasma was “Minor decreases”.

The values above are taken from patent US20110172182A1, “Carboxyethylated Cyclodextrin Polysulfates Useful As Medicaments” (ARCARIOS B.V., priority 2008, published 2011).
